Reference: patent US20250263370A1 (Tay Therapeutics Limited, priority 2022, published 2025)
Where two headings read alike, the source gives them in different places.

Key:
[1] = Sprague-Dawley rat pharmacokinetics, IV and PO cassette dosing; assay type: in vivo; settings: Method 1
Procedure: Compounds were formulated in 5% DMSO, 40% PEG-400, 55% Milli-Q water at a concentration of 0.2 mg/mL for IV and at 0.5 mg/mL for PO. Two male Sprague-Dawley rats per arm were dosed with up to 5 compounds in cassette mode, which each compound being dosed at 1 mg/kg IV and 5 mg/kg PO. Blood was sampled at various timepoints and plasma isolated. 50 μL of plasma with 5 μL of blank Sprague-Dawley rat plasma were added to 200 μL of acetonitrile containing IS mixture. The samples were vortexed for 30 s. After centrifugation at 4 degrees Celsius, 3900 rpm for 15 min, the supernatant was diluted 3 times with water. 20 μL of diluted supernatant was injected into the LC/MS/MS system for quantitative analysis and concentration of analyte determined by comparison with matrix matched standard curve. WinNonlin (Phoenix™, version 8.3) or other similar software may be used for pharmacokinetic calculations.

BRD4 BD2 = BRD4 BD2 (Homo sapiens (Human), UniProt O60885); experiment: NanoBRET bromodomain assay, NanoLuc-BRD4-BD2 fusion in HEK293 cells; settings: for IC50: NanoBRET, HEK293 cells, top concentration 10 μM; for Fold selectivity: IC50 for BRD4 BD1 divided by IC50 for BRD4 BD2, qualitative if an IC50 is at the upper limit;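 on all read-outs here: tracer displacement BRET read in transfected cells after 2 h compound exposure at 37 °C, signal in milliBRET units corrected against no-tracer background wells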
Procedure: (§1) HEK293 cells were transfected using NanoLuc-BRD4-BD1 or NanoLuc-BRD4-BD2 fusion vectors and incubated at 37° C. in an atmosphere of 5% CO2 for 20-24 hours. The transfected cells were then dispensed into 96-well plates using 90 μl cell suspension per well containing 2×10^5 cells/mL in Opti-MEM and 1× final concentration of tracer. 90 μL per well of cell suspension without tracer was also dispensed into at least 3 wells as “No tracer control samples” for background correction. Serially diluted test compounds were prepared at 1000× concentration in DMSO and further diluted to 10× concentration in Opti-MEM. […] Plates were then incubated at 37° C. +5% 002 incubator for 2 hours. […] Donor emission (450 nm) and acceptor emission (610 nm) were measured using PHERAstar (BMG LabTech). For data analysis, the raw BRET ratio was generated and converted to milliBRET units with background correction using the formula: [(Acceptorsample/Donorsample−(Acceptorno tracer control/Donorno tracer control)]×1000. The mBU data was plotted as a function of compound concentration and IC50s for BRET assay were determined by nonlinear regression analysis of concentration response curves using the Collaborative Drug Discovery Vault software. The fold-selectivity was calculated by dividing the IC50 for BRD4 BD1 by the IC50 for BRD4 BD2.

BRD4 BD1 = BRD4 BD1 (Homo sapiens (Human), UniProt O60885); experiment: NanoBRET bromodomain assay, NanoLuc-BRD4-BD1 fusion in HEK293 cells; assay type: cell-based; settings: top concentration 10 μM
Procedure: as §1

Row | IV T1/2 ([1]; IV 1 mg/kg) [h] | PO F ([1]; PO 5 mg/kg) [%] | IC50 (BRD4 BD2; BRD4 BD2 (IC50)) [µM] | Fold selectivity (BRD4 BD2) | IC50 (BRD4 BD1) [µM] | IC50 (BRD4 BD2; read-out: BRD4 BD2 (IC50)) [µM] | BRD4 BD2 % Activity Remaining @ 10 uM (BRD4 BD2; 10 uM, (2) = second batch) [%] | remaining activity at 10 µM (BRD4 BD2; HEK293, read-out: BRD4 BD2 % Activity Remaining @ 10 uM, 10 uM, (2) = second batch) [%] | Molecule
1 | 1.1 | 30 | < 0.05 | XXX (Fold >200) | ≥ 10 | – | – | – | CCNC(=O)c1cc(OC(C)c2ccc(Cl)cc2)c(C(=O)NC)[nH]1 (single isomer, unassigned) [Example 18, 3-(1-(4-chlorophenyl)ethoxy)-N^5-ethyl-N^2-methyl-1H-pyrrole-2,5-dicarboxamide]
2 | – | – | > 10 | — (Fold ≥0 and ≤2) | ≥ 10 | – | – | – | CCNC(=O)c1cc(OC(C)c2ccc(OC)cc2)c(C(=O)NC)[nH]1 (single isomer, unassigned) [Example 76, N^5-ethyl-3-(1-(4-methoxyphenyl)ethoxy)-N^2-methyl-1H-pyrrole-2,5-dicarboxamide]
3 | – | – | > 10 | — (Fold ≥0 and ≤2) | ≥ 10 | – | – | – | CCNC(=O)c1cc(OC(C)c2ccnnc2)c(C(=O)NC)[nH]1 (single isomer, unassigned) [Example 78, N^5-ethyl-N^2-methyl-3-(1-(pyridazin-4-yl)ethoxy)-1H-pyrrole-2,5-dicarboxamide]
4 | – | – | 1 to 10 | — (Fold ≥0 and ≤2) | ≥ 10 | – | – | – | CCNC(=O)c1cc(OC(C)c2ccnnc2)c(C(=O)NC)[nH]1 (single isomer, unassigned) [Example 79, N^5-ethyl-N^2-methyl-3-(1-(pyridazin-4-yl)ethoxy)-1H-pyrrole-2,5-dicarboxamide]
5 | – | – | > 10 | — (Fold ≥0 and ≤2) | ≥ 10 | – | – | – | CNC(=O)c1[nH]c(C(=O)N[C@H]2CC[C@H](O)CC2)cc1O[C@@H](C)c1ccnnc1 (single isomer, unassigned) [Example 91, N^5-(4-hydroxycyclohexyl)-N^2-methyl-3-(1-(pyridazin-4-yl)ethoxy)-1H-pyrrole-2,5-dicarboxamide]
6 | – | – | – | — (Fold ≥0 and ≤2) | ≥ 10 | > 10 | – | – | CNC(=O)c1[nH]c(C(=O)N[C@H]2CC[C@H](O)CC2)cc1O[C@@H](C)c1ccnnc1 (single isomer, unassigned) [Example 93, N^5-(4-hydroxycyclohexyl)-N^2-methyl-3-(1-(pyridazin-4-yl)ethoxy)-1H-pyrrole-2,5-dicarboxamide]
7 | – | – | – | — (Fold ≥0 and ≤2) | ≥ 10 | > 10 | – | – | CNC(=O)c1[nH]c(C(=O)N[C@H]2CC[C@H](O)CC2)cc1O[C@@H](C)c1ccnnc1 (single isomer, unassigned) [Example 94, N^5-(4-hydroxycyclohexyl)-N^2-methyl-3-(1-(pyridazin-4-yl)ethoxy)-1H-pyrrole-2,5-dicarboxamide]
8 | – | – | > 10 | — (Fold ≥0 and ≤2) | ≥ 10 | – | 61 | – | CNC(=O)c1[nH]c(-c2ncc(C)[nH]2)cc1O[C@@H](C)c1ccccc1 [23 (2)*]
9 | – | – | > 10 | — (Fold ≥0 and ≤2) | ≥ 10 | – | – | – | CCNC(=O)c1cc(OC(C)c2cccc(C#N)c2)c(C(=O)NC)[nH]1 (stereo not drawn) [Example 4, 3-(1-(3-cyanophenyl)ethoxy)-N^5-ethyl-N^2-methyl-1H-pyrrole-2,5-dicarboxamide]
10 | – | – | 1 to 10 | – | ≥ 10 | – | – | 41 | CNC(=O)c1[nH]c(-c2ncc(C)[nH]2)cc1O[C@H](C)c1ccccc1 [Example 24, (R)-N-methyl-5-(5-methyl-1H-imidazol-2-yl)-3-(1-phenylethoxy)-1H-pyrrole-2-carboxamide]
11 | – | – | 0.2 to 1 | X (Fold >2 and ≤50) | ≥ 10 | – | – | – | CNC(=O)c1[nH]c(C(=O)NCC(F)(F)F)cc1O[C@@H](C)c1ccccc1F [Example 57, (S)-3-(1-(2-fluorophenyl)ethoxy)-N^2-methyl-N^5-(2,2,2-trifluoroethyl)-1H-pyrrole-2,5-dicarboxamide]
12 | – | – | 0.05 to 0.2 | XX (Fold >50 and ≤200) | ≥ 10 | – | – | – | CNC(=O)c1[nH]c(C(=O)NC(C)C)cc1O[C@@H](C)c1ccccc1F [Example 58, (S)-3-(1-(2-fluorophenyl)ethoxy)-N^5-isopropyl-N^2-methyl-1H-pyrrole-2,5-dicarboxamide]
13 | – | – | 0.05 to 0.2 | XX (Fold >50 and ≤200) | ≥ 10 | – | – | – | CNC(=O)c1[nH]c(C(=O)NCC(F)(F)F)cc1O[C@@H](C)c1ccc(Cl)cc1 [Example 60, (S)-3-(1-(4-chlorophenyl)ethoxy)-N^2-methyl-N^5-(2,2,2-trifluoroethyl)-1H-pyrrole-2,5-dicarboxamide]
14 | – | – | 0.05 to 0.2 | XX (Fold >50 and ≤200) | ≥ 10 | – | – | – | CNC(=O)c1[nH]c(-c2cc(C)nn2C)cc1O[C@@H](C)c1ccccc1 [Example 81, (S)-5-(1,3-dimethyl-1H-pyrazol-5-yl)-N-methyl-3-(1-phenylethoxy)-1H-pyrrole-2-carboxamide]
15 | – | – | > 10 | — (Fold ≥0 and ≤2) | ≥ 10 | – | – | – | CNC(=O)c1[nH]c(-c2cc(C)nn2C)cc1O[C@H](C)c1ccccc1 [Example 82, (R)-5-(1,3-dimethyl-1H-pyrazol-5-yl)-N-methyl-3-(1-phenylethoxy)-1H-pyrrole-2-carboxamide]
16 | – | – | < 0.05 | XXX (Fold >200) | ≥ 10 | – | – | – | CNC(=O)c1[nH]c(-c2cnn(C(F)(F)F)c2)cc1O[C@@H](C)c1ccccc1 [Example 83, (S)-N-methyl-3-(1-phenylethoxy)-5-(1-(trifluoromethyl)-1H-pyrazol-4-yl)-1H-pyrrole-2-carboxamide]
17 | – | – | 1 to 10 | X (Fold >2 and ≤50) | ≥ 10 | – | – | – | CNC(=O)c1[nH]c(-c2ccccc2)cc1O[C@@H](C)c1ccccc1 [Example 84, (S)-N-methyl-5-phenyl-3-(1-phenylethoxy)-1H-pyrrole-2-carboxamide]
18 | – | – | 1 to 10 | X (Fold >2 and ≤50) | ≥ 10 | – | – | – | CNC(=O)c1[nH]c(-c2ccccc2F)cc1O[C@@H](C)c1ccccc1 [Example 85, (S)-5-(2-fluorophenyl)-N-methyl-3-(1-phenylethoxy)-1H-pyrrole-2-carboxamide]
19 | – | – | 1 to 10 | X (Fold >2 and ≤50) | ≥ 10 | – | – | – | CNC(=O)c1[nH]c(-c2ccc(F)cc2F)cc1O[C@@H](C)c1ccccc1 [Example 86, (S)-5-(2,4-difluorophenyl)-N-methyl-3-(1-phenylethoxy)-1H-pyrrole-2-carboxamide]
20 | – | – | 0.05 to 0.2 | XX (Fold >50 and ≤200) | ≥ 10 | – | – | – | CNC(=O)c1[nH]c(-c2nc(C)c(C)[nH]2)cc1O[C@@H](C)c1ccccc1 [Example 87, (S)-5-(4,5-dimethyl-1H-imidazol-2-yl)-N-methyl-3-(1-phenylethoxy)-1H-pyrrole-2-carboxamide]
21 | – | – | 0.05 to 0.2 | XX (Fold >50 and ≤200) | ≥ 10 | – | – | – | CNC(=O)c1[nH]c(-c2cnn(C)c2)cc1O[C@@H](C)c1ccccc1 [Example 88, (S)-N-methyl-5-(1-methyl-1H-pyrazol-4-yl)-3-(1-phenylethoxy)-1H-pyrrole-2-carboxamide]
22 | – | – | 0.05 to 0.2 | XX (Fold >50 and ≤200) | ≥ 10 | – | – | – | CNC(=O)c1[nH]c(-c2ncc[nH]2)cc1O[C@@H](C)c1ccccc1 [Example 89, (S)-5-(1H-imidazol-2-yl)-N-methyl-3-(1-phenylethoxy)-1H-pyrrole-2-carboxamide]
23 | – | – | 0.2 to 1 | X (Fold >2 and ≤50) | ≥ 10 | – | – | – | CNC(=O)c1[nH]c(-c2cc(C)nc(C)c2)cc1O[C@@H](C)c1ccccc1 [Example 90, (S)-5-(2,6-dimethylpyridin-4-yl)-N-methyl-3-(1-phenylethoxy)-1H-pyrrole-2-carboxamide]
24 | – | – | > 10 | — (Fold ≥0 and ≤2) | ≥ 10 | – | – | – | CNC(=O)c1[nH]c(C(=O)N[C@H](C)C(F)(F)F)cc1O[C@@H](C)c1ccccc1 [Example 119, N^2-methyl-3-((S)-1-phenylethoxy)-N^5-((R)-1,1,1-trifluoropropan-2-yl)-1H-pyrrole-2,5-dicarboxamide]
25 | – | – | > 10 | — (Fold ≥0 and ≤2) | ≥ 10 | – | – | – | CNC(=O)c1[nH]c(C(=O)N[C@@H](C)C(F)(F)F)cc1O[C@@H](C)c1ccccc1 [Example 120, N^2-methyl-3-((S)-1-phenylethoxy)-N^5-((S)-1,1,1-trifluoropropan-2-yl)-1H-pyrrole-2,5-dicarboxamide]
26 | – | – | 0.2 to 1 | X (Fold >2 and ≤50) | ≥ 10 | – | – | – | CNC(=O)c1[nH]c(C(=O)NC(C)(C)C)cc1O[C@@H](C)c1ccccc1 [Example 121]
27 | – | – | 0.05 to 0.2 | XX (Fold >50 and ≤200) | ≥ 10 | – | – | – | CNC(=O)c1[nH]c(NC(C)=O)cc1O[C@@H](C)c1ccccc1F [Example 128, (S)-5-acetamido-3-(1-(2-fluorophenyl)ethoxy)-N-methyl-1H-pyrrole-2-carboxamide]

Row | Molecule | IV T1/2 ([1]; IV 1 mg/kg) [h] | PO F ([1]; PO 5 mg/kg) [%] | IC50 (BRD4 BD2; BRD4 BD2 (IC50)) [µM] | Fold selectivity (BRD4 BD2) | IC50 (BRD4 BD1) [µM] | IC50 (BRD4 BD2; read-out: BRD4 BD2 (IC50)) [µM] | BRD4 BD2 % Activity Remaining @ 10 uM (BRD4 BD2; 10 uM, (2) = second batch) [%] | remaining activity at 10 µM (BRD4 BD2; HEK293, read-out: BRD4 BD2 % Activity Remaining @ 10 uM, 10 uM, (2) = second batch) [%]
28 | (S)—N^2-ethyl-4-(1-(2-fluorophenyl) ethyl)-N^5,3-dimethyl-1H-pyrrole-2,5-dicarboxamide [Example 74] | – | – | – | X (Fold >2 and ≤50) | ≥ 10 | 1 to 10 | – | –
